{
  "source": "PubChem BioAssay AID1259409",
  "about": "(Chemical Carcinogenesis Research Information System (CCRIS), 2018)",
  "origin": "cited, not measured here",
  "system": "rodent chemically induced tumor inhibition, incidence and multiplicity",
  "assay": "CCRIS tumor inhibitor studies",
  "details": "Dose [Inhibitor]: 0, Promoter: NONE USED",
  "data": [
    {"smiles": "CCC(=O)Oc1ccc2c(c1)CC[C@@H]1[C@@H]2CC[C@]2(C)[C@@H](OC(=O)CC)CC[C@@H]12", "values": [
      {"measurement": "tumour outcome (control, treated, inhibition, significance)", "setting": "Carcinogen: 1,2-DIMETHYLHYDRAZINE, 540-73-8, 0.1 ML OF A SOLUTION IN OLIVE OIL 1/WK FOR 30 WK ADMINISTERED 1 DAY PRIOR TO EACH CARCINOGEN DOSE AND CONTINUING FOR, Route [Inhibitor]: SUBCUTANEOUS, Species: MOUSE, Strain/Sex: C3H/FEMALE, Target Tissue: Type of Lesion: CLITORAL GLAND: TUMORS, Dose [Carcinogen]: 8 MG/KG BW 1/WK FOR 20 WK", "result": "23/36 (64%), 7/37 (19%), 70%, p=0.026"},
      {"measurement": "tumour outcome (control, treated, inhibition, significance)", "setting": "Carcinogen: 7,12-DIMETHYLBENZ[A]ANTHRACENE, 57-97-6, 1 MG/100 G BW 1/WK FOR 150 D BEGINNING POST CARCINOGEN TREATMENT (STUDY DURATION: 150 D), Route [Inhibitor]: SUBCUTANEOUS, Species: RAT, Strain/Sex: WISTAR/FEMALE, Target Tissue: Type of Lesion: MAMMARY GLAND: ADENOCARCINOMA, Dose [Carcinogen]: 4 MG IN 0.1 ML OF SESAME OIL INJECTED ONCE INTO THE EXPOSED MAMMARY TISSUE OF HYPERPROLACTINEMIC RATS ON DAY 73 OF AGE", "result": "8/11 (73%), 1/7 (14%), 81%, p<0.05"}
    ]},
    {"smiles": "S=C=NCCCc1ccccc1", "values": [
      {"measurement": "tumour outcome (control, treated, inhibition, significance)", "setting": "Carcinogen: 4-(METHYLNITROSAMINO)-1-(3-PYRIDYL)-1-BUTANONE, 64091-91-4, 0.2 UMOL 1/D FOR 4 D ADMINISTERED PRIOR TO CARCINOGEN TREATMENT (STUDY DURATION: 116 D), Route [Inhibitor]: GAVAGE, Species: MOUSE, Strain/Sex: STRAIN A, Target Tissue: Type of Lesion: LUNG: ADENOMA, Dose [Carcinogen]: 10 UMOL ONCE 2 HR AFTER FINAL DOSE OF INHIBITOR", "result": "100%, 90%, 10%, not significant"},
      {"measurement": "tumour outcome (control, treated, inhibition, significance)", "setting": "Carcinogen: 4-(METHYLNITROSAMINO)-1-(3-PYRIDYL)-1-BUTANONE, 64091-91-4, 1 UMOL 1/D FOR 4 D ADMINISTERED PRIOR TO CARCINOGEN TREATMENT (STUDY DURATION: 116 D), Route [Inhibitor]: GAVAGE, Species: MOUSE, Strain/Sex: STRAIN A, Target Tissue: Type of Lesion: LUNG: ADENOMA, Dose [Carcinogen]: 10 UMOL ONCE 2 HR AFTER FINAL DOSE OF INHIBITOR", "result": "100%, 75%, 25%, not significant"},
      {"measurement": "tumour outcome (control, treated, inhibition, significance)", "setting": "Carcinogen: 4-(METHYLNITROSAMINO)-1-(3-PYRIDYL)-1-BUTANONE, 64091-91-4, 5 UMOL 1/D FOR 4 D ADMINISTERED PRIOR TO CARCINOGEN DOSE (STUDY DURATION: 116 D), Route [Inhibitor]: GAVAGE, Species: MOUSE, Strain/Sex: STRAIN-A, Target Tissue: Type of Lesion: LUNG: ADENOMA, Dose [Carcinogen]: 10 UMOL IN SALINE ADMINISTERED 2 HR POST LAST AGENT DOSE", "result": "100%, 37%, 63%, p<0.001"},
      {"measurement": "tumour outcome (control, treated, inhibition, significance)", "setting": "Carcinogen: 4-(N-NITROSOMETHYLAMINO)-1-(3-PYRIDYL)-1-BUTANONE, 64091-91-4, 5 UMOL/D FOR 4 CONSECUTIVE DAYS (STUDY DURATION: 16.5 WK), Route [Inhibitor]: GAVAGE, Species: MOUSE, Strain/Sex: STRAIN-A/FEMALE, Target Tissue: Type of Lesion: LUNG: ADENOMA, Dose [Carcinogen]: 10 UMOL ONCE 2 HR POST LAST AGENT DOSE", "result": "100%, 37%, 63%, not calculated"},
      {"measurement": "tumour outcome (control, treated, inhibition, significance)", "setting": "Carcinogen: 4-METHYLNITROSAMINO-1-(3-PYRIDYL)-1-BUTANONE,64091-91-4, 5 UMOL 1/D FOR 4 D ADMINISTERED PRIOR TO CARCINOGEN TREATMENT (STUDY DURATION 116 D), Route [Inhibitor]: GAVAGE, Species: MOUSE, Strain/Sex: STRAIN A, Target Tissue: Type of Lesion: LUNG: ADENOMA, Dose [Carcinogen]: 10 UMOL ONCE 2 HR AFTER FINAL DOSE OF INHIBITOR", "result": "100%, 11%, 89%, p<0.05"},
      {"measurement": "tumour outcome (control, treated, inhibition, significance)", "setting": "Carcinogen: N-NITROSOMETHYLBENZYLAMINE, 937-40-6, 0.4 UMOL/G IN DIET FOR 25 WK BEGINNING 2 WK PRIOR TO CARCINOGEN TREATMENT (STUDY DURATION: 25 WK), Route [Inhibitor]: ORAL, Species: RAT, Strain/Sex: F344/MALE, Target Tissue: Type of Lesion: ESOPHAGUS: TUMOR, Dose [Carcinogen]: 0.5 MG/KG BW IN 20% DMSO 1/WK FOR 15 WK", "result": "100%, 7%, 93%, p<0.05"},
      {"measurement": "tumour outcome (control, treated, inhibition, significance)", "setting": "Carcinogen: N-NITROSOMETHYLBENZYLAMINE, 937-40-6, 1 UMOL/G IN DIET FOR 25 WK BEGINNING 2 WK PRIOR TO CARCINOGEN TREATMENT (STUDY DURATION: 25 WK), Route [Inhibitor]: ORAL, Species: RAT, Strain/Sex: F344/MALE, Target Tissue: Type of Lesion: ESOPHAGUS: TUMOR, Dose [Carcinogen]: 0.5 MG/KG BW IN 20% DMSO 1/WK FOR 15 WK", "result": "100%, 7%, 93%, p<0.05"},
      {"measurement": "tumour outcome (control, treated, inhibition, significance)", "setting": "Carcinogen: N-NITROSOMETHYLBENZYLAMINE, 937-40-6, 2.5 UMOL/G IN DIET FOR 25 WK BEGINNING 2 WK PRIOR TO CARCINOGEN TREATMENT (STUDY DURATION: 25 WK), Route [Inhibitor]: ORAL, Species: RAT, Strain/Sex: F344/MALE, Target Tissue: Type of Lesion: ESOPHAGUS: TUMOR, Dose [Carcinogen]: 0.5 MG/KG BW IN 20% DMSO 1/WK FOR 15 WK", "result": "100%, 0%, 100%, p<0.05"}
    ]},
    {"smiles": "CCN(CC)CCCCOc1ccc(/C(=C(/Cl)c2ccccc2)c2ccccc2)cc1", "values": [
      {"measurement": "tumour outcome (control, treated, inhibition, significance)", "setting": "Carcinogen: N-METHYL-N-NITROSOUREA, 684-93-5, 0.003 MG/KG BW 1/D FOR 90 D BEGINNING 1 WK POST CARCINOGEN DOSE (STUDY DURATION: 90 D), Route [Inhibitor]: GAVAGE, Species: RAT, Strain/Sex: SPRAGUE-DAWLEY/FEMALE, Target Tissue: Type of Lesion: MAMMARY GLAND: CARCINOMA, Dose [Carcinogen]: 50 MG/KG BW ONCE", "result": "100%, 50%, 50%, not calculated"},
      {"measurement": "tumour outcome (control, treated, inhibition, significance)", "setting": "Carcinogen: N-METHYL-N-NITROSOUREA, 684-93-5, 0.01 MG/KG BW 1/D FOR 90 D BEGINNING 1 WK POST CARCINOGEN DOSE (STUDY DURATION: 90 D), Route [Inhibitor]: GAVAGE, Species: RAT, Strain/Sex: SPRAGUE-DAWLEY/FEMALE, Target Tissue: Type of Lesion: MAMMARY GLAND: CARCINOMA, Dose [Carcinogen]: 50 MG/KG BW ONCE", "result": "100%, 30%, 70%, not calculated"},
      {"measurement": "tumour outcome (control, treated, inhibition, significance)", "setting": "Carcinogen: N-METHYL-N-NITROSOUREA, 684-93-5, 0.1 MG/KG BW 1/D FOR 85 D BEGINNING 1 WK POST CARCINOGEN DOSE (STUDY DURATION: 85 D), Route [Inhibitor]: GAVAGE, Species: RAT, Strain/Sex: SPRAGUE-DAWLEY/FEMALE, Target Tissue: Type of Lesion: MAMMARY GLAND: CARCINOMA, Dose [Carcinogen]: 50 MG/KG BW ONCE", "result": "100%, 5%, 95%, not calculated"},
      {"measurement": "tumour outcome (control, treated, inhibition, significance)", "setting": "Carcinogen: N-METHYL-N-NITROSOUREA, 684-93-5, 1 MG/KG BW 1/D FOR 85 D BEGINNING 1 WK POST CARCINOGEN DOSE (STUDY DURATION: 85 D), Route [Inhibitor]: GAVAGE, Species: RAT, Strain/Sex: SPRAGUE-DAWLEY/FEMALE, Target Tissue: Type of Lesion: MAMMARY GLAND: CARCINOMA, Dose [Carcinogen]: 50 MG/KG BW ONCE", "result": "100%, 5%, 95%, not calculated"}
    ]}
  ]
}
